Results from patent publication US12612410B2 (CHILDREN'S HOSPITAL MEDICAL CENTER, priority 2020, dated 2026).

Tests used:
Format in all cases: cell-based
FLT3 = target: T1, FLT3 (Homo sapiens, UniProt P36888); test: Reaction Biology NanoBRET target engagement assay, FLT3; conditions: transfected HEK-293 cells
T1 sequence (P36888 27-993): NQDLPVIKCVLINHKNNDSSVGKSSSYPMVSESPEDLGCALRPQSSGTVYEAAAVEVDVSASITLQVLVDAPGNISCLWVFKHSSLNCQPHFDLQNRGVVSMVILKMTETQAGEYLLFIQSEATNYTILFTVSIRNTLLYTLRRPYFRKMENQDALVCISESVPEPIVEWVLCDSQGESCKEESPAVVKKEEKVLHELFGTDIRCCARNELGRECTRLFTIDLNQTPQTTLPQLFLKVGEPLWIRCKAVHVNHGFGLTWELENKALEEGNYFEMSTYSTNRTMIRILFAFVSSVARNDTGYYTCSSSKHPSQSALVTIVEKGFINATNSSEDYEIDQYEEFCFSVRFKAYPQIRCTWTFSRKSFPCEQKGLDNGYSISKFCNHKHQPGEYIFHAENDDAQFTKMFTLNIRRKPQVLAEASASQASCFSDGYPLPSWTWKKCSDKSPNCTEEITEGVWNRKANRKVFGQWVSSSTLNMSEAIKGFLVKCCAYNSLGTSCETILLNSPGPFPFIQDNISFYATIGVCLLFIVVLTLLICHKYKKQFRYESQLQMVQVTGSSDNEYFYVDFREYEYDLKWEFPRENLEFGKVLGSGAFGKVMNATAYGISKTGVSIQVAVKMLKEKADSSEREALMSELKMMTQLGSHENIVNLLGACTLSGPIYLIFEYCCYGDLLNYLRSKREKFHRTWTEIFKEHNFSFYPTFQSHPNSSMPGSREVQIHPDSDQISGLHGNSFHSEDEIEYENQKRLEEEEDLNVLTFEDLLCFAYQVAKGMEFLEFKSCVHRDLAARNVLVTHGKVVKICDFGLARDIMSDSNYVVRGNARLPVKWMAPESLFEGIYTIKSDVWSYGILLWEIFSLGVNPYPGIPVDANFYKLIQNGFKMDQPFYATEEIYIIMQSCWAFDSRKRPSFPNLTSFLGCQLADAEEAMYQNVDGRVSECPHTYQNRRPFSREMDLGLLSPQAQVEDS
Source text: The NanoBRET assay measures kinase engagement in real time in the context of the intact cell. Unlike the previously described biochemical kinase assay methodologies in Examples 26-27, the NanoBRET assay measures the binding and activity characteristics under equilibrium conditions using full-length kinases in the presence of cellular concentrations of ATP in live, uncompromised cells. As such, the assay provides a more relevant assessment of kinase potency and selectivity that would be expected to be observed in the native cellular environment, where potency is often considerably lower than that observed in the isolated biochemical assays (Vasta, J. D. et al., (2018) Cell Chem. Biol. 25, 206-214). The assay uses a Kinase-NanoLuc® fusion vector expressing a kinase protein to which a luciferase tag has been added, a cell-permeant fluorescent NanoBRET™ tracer, a NanoLuc® substrate, and an extracellular NanoLuc® inhibitor. Upon expression of the luciferase-tagged kinase, cells will produce a strong BRET signal only in the presence of the NanoBRET™ tracer. The extracellular NanoLuc® inhibitor ensures that the BRET signal observed emanates only from live cells. Because the BRET signal has tight distance constraints, addition of the test compound will decrease the BRET signal if the compound competes with the NanoBRET™ tracer for binding to the kinase domain. Under the appropriate tracer conditions established by the manufacturer, quantitative intracellular affinity and relative potency can then be determined using Mass Action model equations.
HEK-293 cells were purchased from ATCC. FuGENEHD Transfection Reagent, Kinase-NanoLucfusion plasmids, Transfection Carrier DNA, NanoBRETTracers and dilution buffer, NanoBRETNano-Glo Substrate, Extracellular NanoLucInhibitor were obtained from Promega.
Assays were conducted following Promega assay protocol with some modifications. HEK-293 Cells were transiently transfected with Kinase-NanoLucFusion Vector DNA by FuGENEHD Transfection Reagent. Testing compounds were delivered into 384 well assay plate by Echo 550 (Labcytelnc, Sunnyvale, CA). Transfected cells were harvested and mixed with NanoBRETTracer Reagent and dispensed into 384 well plates and incubated at 37° C. in 5% CO2 cell culture incubator for 1 hour. The NanoBRETNano-Glo Substrate plus Extracellular NanoLucInhibitor Solution were added into the wells of the assay plate and incubated for 2-3 minutes at room temperature. The donor emission wavelength (460 nm) and acceptor emission wavelength (600 nm) were measured in the EnVisionplate reader. The BRET Ratios were calculated. BRET Ratio=[(Acceptor sample÷Donor sample)−(Acceptor no-tracer control÷Donor no-tracer control)]. The IC50 values of compounds were calculated with Prism GraphPad program.
NanoBRET™ Target Engagement Assay Protocol
1. Transient Transfection of HEK-293 Cells NanoLuc® Fusion Vector DNA
• 1). Cultivate HEK-293 cells (70-80% confluence) appropriately prior to assay. Trypsinize and collect HEK-293 cells. • 2). Prepare lipid: DNA complexes as follows: • a. Prepare a […] solution of DNA in Opti-MEM without serum that consists of the following ratios of carrier DNA and DNA encoding NanoLuc® fusion. 9.0 µg/mL of Transfection Carrier DNA, […] of NanoLuc fusion vector DNA and 1 mL of Opti-MEM without phenol red. Mix thoroughly. • b. Add 30 l of FuGENE HD Transfection Reagent into each milliliter of DNA mixture to form lipid: DNA complex. • c. Mix by inversion 10 times. • d. Incubate at ambient temperature for 20 minutes to allow complexes to form. • 3). In a sterile, conical tube, mix 1 part of lipid: DNA complex with 20 parts of HEK-293 cells in suspension. Mix gently by inversion 5 times. • 4). Dispense cells+lipid: DNA complex into a sterile tissue culture dish and incubate for 22-24 hours. 2. Addition of Test Compounds (dry plate shooting)
Each test compound is delivered from the compound source plate to the wells of 384-well white NBS plate by Echo 550.
3. […]

NF-κB [1] = test: NF-kB SEAP reporter assay in THP-1-Blue NF-κB cells, Pam3CSK4 stimulation; conditions: Pam3CSK4 1 ng/mL, read-out: NF-κB Pam3SCK4 IC50
Method: (§1) THP-1-Blue NF-xB cells (InvivoGen) carrying a stable integrated NF-κB-inducible secreted embryonic alkaline phosphatase (SEAP) reporter construct were plated at a concentration of 1×10^5 cells per well. The cells were stimulated with Pam3CSK4 (1 ng/mL) or hIL1B (1 ng/mL). After 10-20 minutes, the cells were then treated with vehicle (DMSO) or serial dilutions of the test compounds (10 doses tested for each test compound, with a 1:10 dilution series starting at 1 μM or 3 μM) with a final volume of 200 μL for 24 hours at 37° C. After 24 hours, the cells were centrifuged and 20 μL supernatant was incubated with 180 μL QUANTI-Blue reagent at 37° C. for 30-60 minutes. The levels of NF-κB-induced was measured in a microplate reader at 620 nm.

NF-κB [2] = test: NF-kB SEAP reporter assay in THP-1-Blue NF-κB cells, hIL1B stimulation; conditions: hIL1B 1 ng/mL, read-out: NF-κB IL1B IC50
Method: as §1

| SMILES | IC50 (FLT3) [nM] | IC50 (NF-κB [1]; 24 h) [nM] | IC50 (NF-κB [2]; 24 h) [nM] | IC50 (NF-κB [1]; 24 hours) [nM] | IC50 (NF-κB [2]; 24 hours) [nM] |
| --- | --- | --- | --- | --- | --- |
| FC(F)c1cn2c(-c3cccc(N[C@H]4CNC[C@@H]4F)n3)cnc2cn1 [Compound 16, 6-(6-(difluoromethyl)imidazo[1,2-a]pyrazin-3-yl)-N-((3S,4S)-4-fluoropyrrolidin-3-yl)pyridin-2-amine] | 21 | 11 | 5 |  |  |
| CC(C)(O)c1cn2c(-c3cccc(N[C@H]4CNCC[C@@H]4F)n3)cnc2cn1 [Compound 31, 2-(3-(6-(((3S,4S)-4-fluoropiperidin-3-yl)amino)pyridin-2-yl)imidazo[1,2-a]pyrazin-6-yl)propan-2-ol] | 136 | 37 | 44 |  |  |
| CC(C)(O)c1cn2c(-c3nc(N[C@H]4CNCC[C@@H]4F)c(F)cc3F)cnc2cn1 [Compound 35, 2-(3-(3,5-difluoro-6-(((3S,4S)-4-fluoropiperidin-3-yl)amino)pyridin-2-yl)imidazo[1,2-a]pyrazin-6-yl)propan-2-ol] | 216 | 23 | 88 |  |  |
| O=C1CCCN1c1cn2c(-c3cccc(N[C@H]4CNCC[C@@H]4F)n3)cnc2cn1 [Compound 119, 1-(3-(6-(((3S,4S)-4-fluoropiperidin-3-yl)amino)pyridin-2-yl)imidazo[1,2-a]pyrazin-6-yl)pyrrolidin-2-one] | 16 |  |  | 56 | 1290 |
| O=C1CCCN1c1cn2c(-c3cccc(N[C@H]4CNC[C@@H]4F)n3)cnc2cn1 [Compound 121, 1-(3-(6-(((3S,4S)-4-fluoropyrrolidin-3-yl)amino)pyridin-2-yl)imidazo[1,2-a]pyrazin-6-yl)pyrrolidin-2-one] | 21 | 54 | 76 |  |  |
| CC(C)(C)c1cn2c(-c3cccc(N[C@@H]4CCCNC4)n3)cnc2cn1 [Compound 129, (R)-6-(6-(tert-butyl)imidazo[1,2-a]pyrazin-3-yl)-N-(piperidin-3-yl)pyridin-2-amine] | 12 |  |  | 11 | 70 |

Stronger by IC50 (FLT3), values ahead:

| IC50 (FLT3) [nM] | IC50 (NF-κB [1]; 24 h) [nM] | IC50 (NF-κB [2]; 24 h) [nM] | IC50 (NF-κB [1]; 24 hours) [nM] | IC50 (NF-κB [2]; 24 hours) [nM] | SMILES |
| --- | --- | --- | --- | --- | --- |
| 6 | 12 | 47 |  |  | FC(F)c1cn2c(-c3cccc(N[C@H]4CNCC[C@@H]4F)n3)cnc2cn1 [Compound 25, 6-(6-(difluoromethyl)imidazo[1,2-a]pyrazin-3-yl)-N-((3S,4S)-4-fluoropiperidin-3-yl)pyridin-2-amine] |
| 10 | 9 | 11 |  |  | F[C@H]1CNC[C@@H]1Nc1cccc(-c2cnc3cnc(C4CC4)cn23)n1 [Compound 50, 6-(6-cyclopropylimidazo[1,2-a]pyrazin-3-yl)-N-((3S,4S)-4-fluoropyrrolidin-3-yl)pyridin-2-amine] |
| 4 | 20 | 57 |  |  | F[C@H]1CCNC[C@@H]1Nc1cccc(-c2cnc3cnc(C4CC4)cn23)n1 [Compound 51, 6-(6-cyclopropylimidazo[1,2-a]pyrazin-3-yl)-N-((3S,4S)-4-fluoropiperidin-3-yl)pyridin-2-amine] |
| 0.9 |  |  | 83 | 164 | O=S1(=O)CCCN1c1cn2c(-c3cccc(N[C@H]4CNCC[C@@H]4F)n3)cnc2cn1 [Compound 97, 2-(3-(6-(((3S,4S)-4-fluoropiperidin-3-yl)amino)pyridin-2-yl)imidazo[1,2-a]pyrazin-6-yl)isothiazolidine 1,1-dioxide] |
| 0.9 |  |  | 37 | 357 | O=C1CCCN1c1cn2c(-c3nc(N[C@H]4CNCC[C@@H]4F)c(F)cc3F)cnc2cn1 [Compound 107, 1-[3-[3,5-difluoro-6-[[(3S,4S)-4-fluoro-3-piperidyl]amino]-2-pyridyl]imidazo[1,2-a]pyrazin-6-yl]pyrrolidin-2-one] |
